Key:
human CCR5 = biological target: T1, human CCR5 (Homo sapiens, UniProt P51681); assay: Inhibition of [125I]-RANTES binding to CCR5/CHO cells (CCR5 antagonist activity); settings: test compound 1 μM, [125I]-RANTES 100 pM, CCR5/CHO strains, room temperature; for inhibition at 1 µM: 40 min, read-out: Binding Inhibitory Ratio (%); for Binding Inhibitory Ratio (%): 40 minutes
T1 construct: expressed in transfected cells
Procedure: Cloning of a CCR5 gene was conducted from human spleen cDNA by a PCR method. Using 0.5 ng of spleen cDNA (Toyobo Co., Ltd., QUICK-Clone cDNA) as a template, the PCR reaction was carried out in a DNA Thermal Cycler 480 (Perkin Elmer) using a TaKaRa EX Taq (Takara Shuzo Co., Ltd.) (reaction conditions: 30 cycles of treatments at 95° C. for 1 minute, at 60° C. for 1 minute, and at 75° C. for 5 minutes) by adding 25 pmol of primers, SEQ ID NO. 1 (sequence length: 34; sequence type: nucleic acid; number of chains: a single chain; topology: linear; sequence kind: other nucleic acid, synthetic DNA) described in Experimental Example (1) of WO 99/32100, and SEQ ID NO. 2 (sequence length: 34; sequence type: nucleic acid; number of chains: a single chain; topology: linear; sequence kind: other nucleic acid, synthetic DNA) described in Experimental Example (1) of WO 99/32100, respectively, which were prepared by referring to the base sequence of the CCR5 gene described by Samson et al. (Biochemistry 35 (11), 3362-3367 (1996)). The PCR products were subjected to agarose gel electrophoresis to collect DNA fragments of about 1.0 kb. Then, the CCR5 gene was cloned using an Original TA Cloning Kit (Funakoshi Co., Ltd.).
The plasmids obtained above were digested with restriction enzymes XbaI (Takara Shuzo Co., Ltd.) and BamHI (Takara Shuzo Co., Ltd.), and subjected to agarose gel electrophoresis to collect DNA fragments of about 1.0 kb. The DNA fragments and a plasmid pcDNA3.1 (Funakoshi Co., Ltd.) for expression in animal cells, which was previously digested with XbaI and BamHI, were mixed and ligated by DNA Ligation Kit Ver.2 (Takara Shuzo Co., Ltd.). Transformation of E. coli JM109 competent cells (Takara Shuzo Co., Ltd.) gave plasmid pCKR5.
CHO-K1 cells grown in a 750 ml tissue culture flask (Becton Dickinson) using Ham's F12 medium (Nihon Pharmaceutical Co., Ltd.) containing 10% fetal bovine serum (Lifetech Oriental) were collected from the flask by using 0.5 g/L trypsin-0.2 g/L EDTA (Lifetech Oriental). The cells were then washed with PBS (Lifetech Oriental), centrifuged (1000 rpm, 5 minutes), and suspended in PBS. Next, DNA was introduced into the cells using Gene Pulser (Bio-Rad Laboratories Inc.) under the following conditions. Namely, 8×10^6 cells and 10 μg of plasmid pCKR5 for expression of human CCR5 were added into a cuvette of a 0.4 cm-gap, and electroporation was carried out at an electric voltage of 0.25 kV and a capacitance of 960 μF. Subsequently, the cells were transferred into Ham's F12 medium containing 10% fetal bovine serum, and incubated for 24 hours. The cells were again collected, centrifuged, and then suspended in Ham's F12 medium containing 10% fetal bovine serum and Geneticin (Lifetech Oriental) at a concentration of 500 μg/ml. The suspension of cells was diluted to a concentration of 10^4 cells/ml, and inoculated on a 96-well plate (Becton Dickinson) to give Geneticin-resistant strains.
Subsequently, the Geneticin-resistant strains were cultured in the 96-well plate (Becton Dickinson), and then CCR5-expressing cells were selected from the resistant strains. Namely, an assay buffer (Ham's F12 medium containing 0.5% BSA, and 20 mM HEPES (Wako Pure Chemical Industries, Ltd., pH 7.2)) containing 200 pM [^125I]-RANTES (Amersham) as a ligand was added to each well and the binding reaction was carried out at room temperature for 40 minutes. Each well plate containing the cells was washed with ice-cooled PBS, and then to each well was added 1 M NaOH in an amount of 50 μl/well, which was stirred. The cells to which the ligand bound specifically, i.e., CCR5/CHO strains, were selected by measurement of radioactivity by γ-counter.
The CCR5/CHO strains were inoculated on a 96-well microplate at a concentration of 5×10^4 cells/well, respectively and were cultured for 24 hours. […]

T1 sequence (P51681 whole entry): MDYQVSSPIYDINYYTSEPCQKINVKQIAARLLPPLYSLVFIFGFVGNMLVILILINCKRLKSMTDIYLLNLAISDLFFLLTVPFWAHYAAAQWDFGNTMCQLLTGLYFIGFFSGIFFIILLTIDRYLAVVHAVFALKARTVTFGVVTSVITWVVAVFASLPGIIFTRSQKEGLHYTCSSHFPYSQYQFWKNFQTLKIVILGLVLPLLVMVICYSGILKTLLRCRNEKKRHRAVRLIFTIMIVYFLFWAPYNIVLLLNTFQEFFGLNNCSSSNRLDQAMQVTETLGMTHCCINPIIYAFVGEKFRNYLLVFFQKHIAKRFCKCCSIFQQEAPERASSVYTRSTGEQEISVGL

SMILES | melting point [°C] | inhibition at 1 µM (human CCR5) [%] | Binding Inhibitory Ratio (%) (human CCR5)
CCCCOCCOc1ccc(-c2ccc(N3CCC(C(=O)N(C)C)C3)c(/C=C(\C)C(=O)Nc3ccc([S@@+]([O-])Cc4cncn4CCC)cc3)c2)cc1 (stereo partly shown) [Compound 45, (Ss)-(2E)-3-[4′-(2-butoxyethoxy)-4-[3-(dimethylaminocarbonyl)pyrrolidin-1-yl]-1,1′-biphenyl-3-yl]-2-methyl-N-[4-[[(1-propyl-1H-imidazol-5-yl)methyl]sulfinyl]phenyl]acrylamide] | 151 to 152 |  | 
CCCCOCCOc1ccc(-c2ccc(N3CCC(C(=O)O)C3)c(/C=C(\C)C(=O)Nc3ccc([S@@+]([O-])Cc4cncn4CCC)cc3)c2)cc1 (stereo partly shown) [Compound 41, (Ss)-(2E)-3-[4′-(2-butoxyethoxy)-4-(3-carboxypyrrolidin-1-yl)-1,1′-biphenyl-3-yl]-2-methyl-N-[4-[[(1-propyl-1H-imidazol-5-yl)methyl]sulfinyl]phenyl]acrylamide] | 184 to 186 | 100 | 
CCCCOCCOc1ccc(-c2ccc(N3CCC(C(=O)NC)C3)c(/C=C(\C)C(=O)Nc3ccc([S@@+]([O-])Cc4cncn4CCC)cc3)c2)cc1 (stereo partly shown) [Compound 44, (Ss)-(2E)-3-[4′-(2-butoxyethoxy)-4-[3-(methylaminocarbonyl)pyrrolidin-1-yl]-1,1′-biphenyl-3-yl]-2-methyl-N-[4-[[(1-propyl-1H-imidazol-5-yl)methyl]sulfinyl]phenyl]acrylamide] | 127 to 128.5 |  | 
CCCCOCCOc1ccc(-c2cc(/C=C(\C)C(=O)Nc3ccc([S@@+]([O-])Cc4cncn4CCC)cc3)c3c(c2)CCCN3C)cc1 [Compound 29, (S)-(2E)-3-[6-[4-(2-butoxyethoxy)phenyl]-1-methyl-1,2,3,4-tetrahydroquinolin-8-yl]-2-methyl-N-[4-[[(1-propyl-1H-imidazol-5-yl)methyl]sulfinyl]phenyl]-2-acrylic amide] |  |  | 100
CCCCOCCOc1ccc(-c2cnc(N3CCC(COC(C)=O)C3)c(/C=C(\C)C(=O)Nc3ccc([S@@+]([O-])Cc4cncn4CCC)cc3)c2)cc1 (stereo partly shown) [Compound 49, (Ss)-(2E)-3-[2-[3-(acetoxymethyl)pyrrolidin-1-yl]-5-[4-(2-butoxyethoxy)phenyl]pyridin-3-yl]-2-methyl-N-(4-[[(1-propyl-1H-imidazol-5-yl)methyl]sulfinyl]phenyl]acrylamide] |  | 100 | 
CCCCOCCOc1ccc(-c2ccc(N3CCC4(C3)OCCO4)c(/C=C(\C)C(=O)Nc3ccc([S@@+]([O-])Cc4cncn4CCC)cc3)c2)cc1 [Compound 37, (S)-(2E)-3-[4′-(2-butoxyethoxy)-4-(1,4-dioxa-7-azaspiro[4.4]non-7-yl)-1,1′-biphenyl-3-yl]-2-methyl-N-[4-[[(1-propyl-1H-imidazol-5-yl)methyl]sulfinyl]phenyl]acrylamide] | 139.5 to 140.5 |  | 
CCCCOCCOc1ccc(-c2ccc(N3CCCC3C)c(/C=C(\C)C(=O)Nc3ccc([S@@+]([O-])Cc4cncn4CCC)cc3)c2)cc1 (stereo partly shown) [Compound 17, (Ss)-(2E)-3-[4′-(2-butoxyethoxy)-4-(2-methylpyrrolidin-1-yl)-1,1′-biphenyl-3-yl]-2-methyl-N-[4-[[(1-propyl-1H-imidazol-5-yl)methyl]sulfinyl]phenyl]acrylamide] |  | 100 | 
CCCCOCCOc1ccc(-c2ccc(N3CCC(CC(=O)OCC)C3)c(/C=C(\C)C(=O)Nc3ccc([S@@+]([O-])Cc4cncn4CCC)cc3)c2)cc1 (stereo partly shown) [Compound 61, (Ss)-(2E)-3-[4′-(2-butoxyethoxy)-4-[3-(2-ethoxy-2-oxoethyl)pyrrolidin-1-yl]-1,1′-biphenyl-3-yl]-2-methyl-N-(4-[[(1-propyl-1H-imidazol-5-yl)methyl]sulfinyl]phenyl]acrylamide] |  | 94 | 
CCCCOCCOc1ccc(-c2ccc(N3CCCC3)c(/C(C)=C/C(=O)Nc3ccc([S@@+]([O-])Cc4cncn4CCC)cc3)c2)cc1 [Compound 35, (S)-(2E)-3-[4′-(2-butoxyethoxy)-4-pyrrolidin-1-yl-1,1′-biphenyl-3-yl]-N-[4-[[(1-propyl-1H-imidazol-5-yl)methyl]sulfinyl]phenyl]but-2-enoic amide] |  | 100 | 
CCCCOCCOc1ccc(-c2ccc(N3CCC(C(=O)O)C3)c(/C=C(\C)C(=O)Nc3ccc([S@@+]([O-])Cc4cncn4CCC)cc3)c2)cc1 (single isomer, unassigned) [Compound 60, (Ss)-(2E)-3-[4′-(2-butoxyethoxy)-4-(3-carboxypyrrolidin-1-yl)-1,1′-biphenyl-3-yl]-2-methyl-N-[4-[[(1-propyl-1H-imidazol-5-yl)methyl]sulfinyl]phenyl]acrylamide] |  |  | 91
CCCCOCCOc1ccc(-c2cnc(N3CCC(CO)C3)c(/C=C(\C)C(=O)Nc3ccc([S@@+]([O-])Cc4cncn4CCC)cc3)c2)cc1 (stereo partly shown) [Compound 50, (Ss)-(2E)-3-[5-[4-(2-butoxyethoxy)phenyl]-2-[3-(hydroxymethyl)pyrrolidin-1-yl]pyridin-3-yl]-2-methyl-N-[4-[[(1-propyl-1H-imidazol-5-yl)methyl]sulfinyl]phenyl]acrylamide] |  | 100 | 
CCCCOCCOc1ccc(-c2ccc(N3CCC(C(=O)OC)C3)c(/C=C(\C)C(=O)Nc3ccc([S@@+]([O-])Cc4cncn4CCC)cc3)c2)cc1 (single isomer, unassigned) [Compound 57, (Ss)-(2E)-3-[4′-(2-butoxyethoxy)-4-[3-(methoxycarbonyl)pyrrolidin-1-yl]-1,1′-biphenyl-3-yl]-2-methyl-N-[4-[[(1-propyl-1H-imidazol-5-yl)methyl]sulfinyl]phenyl]acrylamide] |  | 100 | 
CCCCOCCOc1ccc(-c2ccc(N3CCC(COC(C)=O)C3)c(/C=C(\C)C(=O)Nc3ccc([S@@+]([O-])Cc4cncn4CCC)cc3)c2)cc1 (stereo partly shown) [Compound 38, (Ss)-(2E)-3-[4-[3-(acetoxymethyl)pyrrolidin-1-yl]-4′-(2-butoxyethoxy)-1,1′-biphenyl-3-yl]-2-methyl-N-[4-[[(1-propyl-1H-imidazol-5-yl)methyl]sulfinyl]phenyl]acrylamide] |  | 93 | 
CCCCOCCOc1ccc(-c2cnc(N3CCCC3)c(/C=C(\C)C(=O)Nc3ccc([S@@+]([O-])Cc4cncn4CCC)cc3)c2)cc1 [Compound 47, (S)-(2E)-3-[5-[4-(2-butoxyethoxy)phenyl]-2-pyrrolidin-1-ylpyridin-3-yl]-2-methyl-N-[4-[[(1-propyl-1H-imidazol-5-yl)methyl]sulfinyl]phenyl]acrylamide] |  | 96 | 
CCCCOCCOc1ccc(-c2ccc(N3CCC(C(=O)OC)C3)c(/C=C(\C)C(=O)Nc3ccc([S@@+]([O-])Cc4cncn4CCC)cc3)c2)cc1 (single isomer, unassigned) [Compound 58, (Ss)-(2E)-3-[4′-(2-butoxyethoxy)-4-[3-(methoxycarbonyl)pyrrolidin-1-yl]-1,1′-biphenyl-3-yl]-2-methyl-N-[4-[[(1-propyl-1H-imidazol-5-yl)methyl]sulfinyl]phenyl]acrylamide] |  |  | 95

Reference: patent US20060160864A1, “Acrylamide derivative, process for producing the same, and use” (priority 2003, published 2006)
